According to PubChem BioAssay (NCI):
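GI50 = concentration required for 50% inhibition of growth. TGI: concentration producing complete growth inhibition.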

Experiments:
Assay in all cases: NCI-60 cell line screen, 384-well format
T-47D breast = test system: T-47D breast
HCT-116 colon = test system: HCT-116 colon
OVCAR-5 ovarian = test system: OVCAR-5 ovarian
OVCAR-4 ovarian = test system: OVCAR-4 ovarian
SF-295 CNS = test system: SF-295 CNS
SK-OV-3 ovarian = test system: SK-OV-3 ovarian
SR leukemia = test system: SR leukemia
KM12 colon = test system: KM12 colon
SF-539 CNS = test system: SF-539 CNS
HCC-2998 colon = test system: HCC-2998 colon
NCI-H23 lung = test system: NCI-H23 lung
K-562 leukemia = test system: K-562 leukemia
DU-145 prostate = test system: DU-145 prostate

CS(=O)(=O)c1ccc(C(=O)Nc2ccc(Cl)c(-c3ccccn3)c2)c(Cl)c1 gave a GI50 (T-47D breast) of 21.4 µM, a TGI (T-47D breast) of 59.7 µM and a GI50 (HCT-116 colon) of 58.3 µM. For the same molecule, the TGI (HCT-116 colon) was > 100 µM, the GI50 (OVCAR-5 ovarian) was 54.2 µM and the TGI (OVCAR-5 ovarian) was > 100 µM. For the same molecule, the GI50 (OVCAR-4 ovarian) was 32.6 µM, the TGI (OVCAR-4 ovarian) was > 84.5 µM and the GI50 (SF-295 CNS) was 33 µM. The TGI (SF-295 CNS) was > 67.7 µM, the GI50 (SK-OV-3 ovarian) was > 72.5 µM and the TGI (SK-OV-3 ovarian) was > 100 µM. For the same molecule, the GI50 (SR leukemia) was 29 µM, the TGI (SR leukemia) was 50.6 µM and the GI50 (KM12 colon) was 17.9 µM. The TGI (KM12 colon) was > 56.7 µM, the GI50 (SF-539 CNS) was 49.1 µM and the TGI (SF-539 CNS) was > 100 µM. For the same molecule, the GI50 (HCC-2998 colon) was 24.6 µM, the TGI (HCC-2998 colon) was 56.8 µM and the GI50 (NCI-H23 lung) was > 61.2 µM. The TGI (NCI-H23 lung) was > 100 µM, the GI50 (K-562 leukemia) was 16.3 µM and the TGI (K-562 leukemia) was 31.1 µM. The GI50 (DU-145 prostate) was 42.5 µM and the TGI (DU-145 prostate) was > 86.8 µM.
